As usually defined, the IC50 is the concentration that gives 50% inhibition. A lower IC50 goes with greater potency.

Entries after “also recorded” stand apart in the source; their conditions may differ.

One test concerns the target T1, SHMT1 (Homo sapiens, UniProt P34896).
T1 sequence (P34896 1-483): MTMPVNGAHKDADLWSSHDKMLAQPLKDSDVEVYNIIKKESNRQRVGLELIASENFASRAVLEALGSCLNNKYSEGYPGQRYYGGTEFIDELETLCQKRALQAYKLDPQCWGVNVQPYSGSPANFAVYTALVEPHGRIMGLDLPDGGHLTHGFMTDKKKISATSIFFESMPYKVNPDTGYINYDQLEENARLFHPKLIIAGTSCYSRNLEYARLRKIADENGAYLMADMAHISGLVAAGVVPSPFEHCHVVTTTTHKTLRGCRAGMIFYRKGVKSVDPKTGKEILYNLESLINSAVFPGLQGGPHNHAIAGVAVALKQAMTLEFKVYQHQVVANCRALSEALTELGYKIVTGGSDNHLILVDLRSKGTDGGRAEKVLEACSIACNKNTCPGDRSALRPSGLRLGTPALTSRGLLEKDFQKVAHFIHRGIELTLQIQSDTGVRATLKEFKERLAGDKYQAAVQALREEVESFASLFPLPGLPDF
In words: SHMT1 inhibition (Table 2). The test is classed as biochemical.

A further test has as its target T2, SHMT2 (Homo sapiens, UniProt P34897).
T2 sequence (P34897 30-504): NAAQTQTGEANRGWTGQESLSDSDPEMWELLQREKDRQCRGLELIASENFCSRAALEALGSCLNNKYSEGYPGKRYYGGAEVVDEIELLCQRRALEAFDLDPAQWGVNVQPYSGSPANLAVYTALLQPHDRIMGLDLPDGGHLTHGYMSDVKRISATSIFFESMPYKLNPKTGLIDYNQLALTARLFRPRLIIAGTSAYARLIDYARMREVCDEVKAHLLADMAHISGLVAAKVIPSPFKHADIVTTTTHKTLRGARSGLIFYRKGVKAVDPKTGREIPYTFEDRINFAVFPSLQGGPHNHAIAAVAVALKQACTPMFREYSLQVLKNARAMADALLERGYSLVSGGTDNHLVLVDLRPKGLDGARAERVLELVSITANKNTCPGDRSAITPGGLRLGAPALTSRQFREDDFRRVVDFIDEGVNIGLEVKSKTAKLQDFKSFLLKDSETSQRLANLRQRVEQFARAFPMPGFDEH
The experiment in a line: SHMT2 inhibition (Table 2). The test is classed as biochemical.

Another test deals with T3, MTHFD2 (Homo sapiens, UniProt P13995).
T3 construct: purchased Raze Therapeutics (gift, not a catalogue product)
T3 sequence (P13995 36-350): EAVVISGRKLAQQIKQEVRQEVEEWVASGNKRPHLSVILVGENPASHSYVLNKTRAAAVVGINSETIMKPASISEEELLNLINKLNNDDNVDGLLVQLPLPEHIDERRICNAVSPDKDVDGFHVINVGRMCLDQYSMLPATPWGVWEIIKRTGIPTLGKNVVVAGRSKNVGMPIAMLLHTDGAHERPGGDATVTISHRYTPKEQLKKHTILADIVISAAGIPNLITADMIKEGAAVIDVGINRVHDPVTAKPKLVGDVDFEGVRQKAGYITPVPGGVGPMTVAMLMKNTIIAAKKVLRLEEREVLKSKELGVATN
In words: Enzymatic assay for MTHFD2 with increasing NADH. The test is classed as biochemical. The procedure: Enzymatic Assay for MTHFD2. NAD (Sigma N0632), NADH (Sigma N8129) and 5, 10-meTHF (Schircks Laboratories, 16.226) solution were freshly prepared each time in water. Reaction mixtures consisted of 50 mM KH2PO4 pH 7.4, 5 mM dithiothreitol (DTT), 5% DMSO, and 0.005 mg/mL MTHFD2 (obtained from Raze Therapeutics), and NAD and NADH as indicated in the Figures. Reaction mixtures were incubated for 5 min at 37° C. before initiation of the reaction by addition of 5,10-meTHF to a final concentration of 0.4 mM using multichannel. The plate was mixed for 5 s in the plate reader (Biotek Synergy HT), and the rate of change in absorbance at 340 nm due to NADH accumulation was recorded over the duration of linear NADH accumulation.
Enzymatic Assay for MDH. NAD and NADH solutions were freshly prepared in water; malate solution was prepared in 50 mM Tris-HCl and adjusted pH to 7.6 with 10 M KOH. […] The plate was mixed for 5 s in the plate reader, and absorbance at 340 nm recorded as above.
Enzymatic assay for PDH and KGDH: Pyruvate dehydrogenase and alpha-ketoglutarate dehydrogenase solutions were freshly prepared to a concentration 0.075 unit/ml with buffer containing 20 mM sodium phosphate and 1 mM MgCl2, pH7.2. […] The plate was mixed for 5 s in the plate reader, and absorbance at 340 nm recorded as above.

For a further test, the system named is HCT116 xenograft tumors. The experiment in a line: HCT116 xenograft tumors, metabolomics and [2,3,3-2H]serine tracing. The test is classed as in vivo, mice. How it is done: Mouse Xenograft and allograft. For tumor xenograft tracing experiments, 6- to 7-week-old male CD1/nude mice were injected in the rear flanks with HCT-116 (1×10^6 cells in 100 μL 1:1 PBS:Matrigel). For tumor allograft tracing experiment, 6- to 8-wk-old male C57BL6 mice were injected in the rear flank with KrasLSL.G12D/+x p53R172H/+x PdxCretg/+ pancreatic tumor tissue suspension (200 μL 1:1 DMEM:Matrigel). Jugular vein catheterization surgery was performed when tumor size reached 250 mm3 [volume=1/2 (length×width×height)]. […] Tracing experiments were performed after 1 week of post-surgery monitoring. Tumors were removed and immediately clamped to aluminum foil using Wollenberger clamp and stored in liquid nitrogen. For Long term storage, tissues were kept in −80° C. until future sample preparation.
Metabolites extraction from tissue, tumors and serum. Tissues and tumors were collected from mice and immediately clamped into liquid nitrogen using Wollenberger clamp, tissue were stored in −80° C. Frozen tissues were transferred into 2 ml Eppendorf tubes, which are precooled on dry ice, and pulverized by using cyromill. The resulting tissue powder was weighed (around 10 mg) and mixed well by vortexing in extraction buffer (40 μL extraction buffer per mg tissue). The extraction solution was neutralized with NH4HCO3 as above and centrifuged in a microfuge at maximum speed for 30 min at 4° C. Supernatant was transferred to LC-MS vials for analysis.
IACS-10759 is a potent mitochondrial complex I inhibitor with efficacy in inhibiting tumor growth and inducing apoptosis in models of brain cancer and acute myeloid leukemia. Molina, J. R. et al., Nat. Med. 24, 1036-1046 (2018). […] To check whether circulating serine contributes NADH when respiration is impaired in vivo, [2,3,3-^2H]serine was infused into tumor bearing mice.

Test [1] concerns HCT116 cells. In words: NAD2H labeling from [2,3,3-2H]serine in cultured cells. It counts as cell-based. How it is done: (§1) Adherent cells. Cells were seeded in 6 well plates overnight and then were treated with ETC inhibitors. Serine-free DMEM with 10% dialyzed FBS was supplemented with 400 µM [2,3,3, 2H]serine. Medium was replaced by the isotope tracing medium with corresponding drugs, and cells were incubated for 3 h. Medium was aspirated, and metabolism was quenched with extraction buffer (40:40:20 acetonitrile:methanol: water with 0.5% formic acid; 40 μl of extraction solvent per 1 μl packed cell volume)(Lu et al., 2018). Plates were placed on dry ice for 10 mins, and thereafter the extraction solution was neutralized with 15% NH4HCO3 (70 μl for 800 μl extraction buffer). Cells were then scraped off from plates by using a cell lifter (Corning 3008), transferred into Eppendorf tubes and centrifuged in a benchtop microfuge at maximum speed for 30 min at 4° C. Supernatant was transferred to LC-MS vials for analysis.
LC-MS. […] Solvent A is 95:5 water: acetonitrile with 20 mM ammonium acetate and 20 mM ammonium hydroxide at pH 9.4, and solvent B is acetonitrile. The gradient was 0 min, 85% B; 2 min, 85% B; 3 min, 60% B; 9 min, 60% B; 9.5 min, 35% B; 13 min, 5% B; 15.5 min, 5% B; 16 min, 85% B; 20 min, stop run. Injection volume was 15 μL. The Q-Exactive Plus mass spectrometer was operated in negative ion mode scanning from m/z 70-1000 with a resolution (at m/z 200) of 140,000 (AGC target 3e6, Maximum IT 200 ms) (Wang et al., 2019). A second scan from m/z 640-765 with a resolution (at m/z 200) of 35,000 (AGC target 5e5, maximum IT 200 ms) was used to measure NAD(P), NAD(P)H, and their labeling. The purpose of the second scan was to enhance sensitivity for NAD(P)(H) by restricting the range of ions in the orbitrap and to maximize the accuracy of isotope ratios by decreasing the scan range and mass resolution (Su et al., 2017).
Calculation of 2H-serine contribution to malate, aspartate, and NADH: For malate and aspartate, the 2H-labeling fraction was measured directly (fractional size of 2H-peak relative to sum of all peaks, after isotope correction as above). For NADH, the 2H-labeling fraction was measured based on the active hydride labeling (x), which was determined from the labeling pattern of NAD+ and NADH by least square fitting in MATLAB of the observed experimental data (after natural isotope correction) to the below vectors (Liu et al., 2016a).

A further test has as its system liver NADH/NAD ratio. The experiment in a line: Serine/metformin drinking water, liver metabolomics. It counts as in vivo, mice. The conditions noted are these: 5% serine or 0.25% metformin drinking water for 2 weeks.
Test [2] deals with HCT116 cells. The experiment in a line: Cell proliferation assay, HCT116. It counts as cell-based. The procedure:
(§2) Cell Proliferation Assays. Cells were seeded in seeded in 96 well plates (Corning 3603) for overnight attachment. Medium (with or without drugs) was changed next day, and cell numbers were recorded using Thermofisher CyQUANT kit.

The test system of another test is C2C12 cells. In words: C2C12 cells treated with metformin, serine catabolism inhibition. The conditions noted are these: C2C12, 5 mM metformin, SHIN1 250 nM. It counts as cell-based. The procedure:
as §1, §2

Setting [3] is: IACS-10759 10 mg/kg gavage every day for 7 days, CD-1 nude mice.
The mark [4] stands for this setting: cultured cells, complex I inhibitor added.

Turning to `Cc1n[nH]c2c1C(c1cc(N3CCCC3)cc(C(F)(F)F)c1)(C(C)C)C(C#N)=C(N)O2` (centres unmarked) [HK-X1], the results for the IC50 at SHMT1 and against SHMT2 were 13 nM and 66 nM, respectively.

As for `NC(=O)C1=CN([C@@H]2O[C@H](COP(=O)(O)OP(=O)(O)OC[C@H]3O[C@@H](n4cnc5c(N)ncnc54)[C@H](O)[C@@H]3O)[C@@H](O)[C@H]2O)C=CC1` [NADH], the “NADH level up to which MTHFD2 maintains full activity” value on MTHFD2 (NADH as competitive (product) inhibitor, adequate NAD) is given as “up to 200 μM”. The “sensitivity of MTHFD2 to NADH, less than PDH, KGDH and malate dehydrogenase” value on MTHFD2 (product inhibition by NADH) is given as “at least 10 fold”.

For `Cc1n[nH]c2c1C(c1cc(Cl)cc(Cl)c1)(C1CCC1)C(C#N)=C(N)O2` (centres unmarked) [HK-10], the IC50 on SHMT1 stood at 593 nM; at SHMT2 it was 1190 nM.

On to `Cc1nc(-c2nc(-c3ccc(OC(F)(F)F)cc3)no2)nn1Cc1cccc(N2CCC(S(C)(=O)=O)CC2)c1` [IACS-10759], for which, in the test on HCT116 xenograft tumors (setting [3]), the “NADH/NAD ratio of tumors” value is on record as “increased” and the intra-tumor lactate level entry was “increased”. In the test with HCT116 xenograft tumors (IACS-10759 10 mg/kg, 2.5 hours serine infusion), the “2H-malate labeling from [2,3,3-2H]serine in tumors” value is listed as “increased”.

As to `[H]/N=C(/N)N/C(=N/[H])NCCc1ccccc1` [phenformin], the “fractional contribution of serine to NADH” value (from here on “fractional contribution”) in the test on HCT116 cells [1] (setting [4]) was “dramatically elevated”.

On to `CN(C)C(=N)N=C(N)N` [metformin, reference compound], for which, in the test on liver NADH/NAD ratio, the “NADH/NAD ratio in liver” value is recorded as “increased; also recorded: significantly increase”. Besides, in the test with HCT116 cells [1] (setting [4]), the “fractional contribution” value is listed as “dramatically elevated”.

Take `N#C/C(=C\c1cn(-c2ccccc2)c2ccccc12)C(=O)O` [UK5099]: in the test with HCT116 cells [1] (metformin-treated cells with pyruvate), the “block of the pyruvate effect (rescue of NADH phenotypes)” value is reported as “does not block; also recorded: not blocked”.

As for `CC1=C(C)C(=O)C(C)=C(C)C1=O` [duroquinone], in the test on HCT116 cells [1] (added to metformin-treated cells (HCT116, 5 mM metformin)), the “fractional contribution” value was “decreased”.

In the case of `Cc1n[nH]c2c1C(c1cc(Cl)cc(C(F)(F)F)c1)(C(C)C)C(C#N)=C(N)O2` (centres unmarked) [HK-15], the figures for the IC50 against SHMT1 and at SHMT2 were 20 nM and 35 nM, respectively.

As for `N[C@@H](CO)C(=O)O` [serine], the “NADH/NAD ratio in liver” value in the test with liver NADH/NAD ratio was “significantly increase”; with liver NADH/NAD ratio (listed as Serine), “increased”.

As to `Cc1[nH]nc2c1C(c1cc(CO)cc(-c3ccccc3)c1)(C(C)C)C(C#N)=C(N)O2` (centres unmarked) [HK-X2 (SHIN1)], the “cell proliferation / growth” value in the test on HCT116 cells [2] (HCT116, in the presence of metformin) is listed as “enhances growth; also recorded: augmented proliferation”. In the test on HCT116 cells [2] (HCT116, in the presence of phenformin or rotenone), the “cell proliferation / growth” value is on record as “enhances growth; also recorded: augmented proliferation”. In addition, the cell proliferation entry with HCT116 cells [2] (HCT116, standard tissue culture conditions) is given as “decreased cell proliferation”. For the same compound, the cell growth result with HCT116 cells [2] (HCT116 WT, hypoxia (0.5% O2), low doses of SHIN1) is on record as “modestly increased cell growth”. Moreover, in the test on C2C12 cells, the aspartate result is “enhances aspartate” and the “cell growth / tolerance of metformin” value is listed as “restores; also recorded: better tolerated metformin”.

As for `Cc1n[nH]c2c1C(c1cc(Cl)cc(Cl)c1)(C(C)C)C(C#N)=C(N)O2` (centres unmarked) [HK-14], the 50% inhibitory concentration (IC50) on SHMT1 was found to be 67 nM; against SHMT2, 131 nM.
